From patent US11827628B2, “Compositions and methods for inhibition of the JAK pathway” (Rigel Pharmaceuticals, Inc., priority 2005, dated 2023)

Tested on: up-regulation of ICAM-1 (CD54) by IFNγ in A549 lung epithelial cells
Test: A549 Epithelial Line Stimulated with IFNγ (ICAM-1 surface expression, FACS)
Format: cell-based, human
Settings: A549 epithelial line stimulated with IFNγ; ICAM-1 expression by FACS; read-out: IC50, Example 43
In short: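 A549 cells pre-incubated 1 h with compound (30 μM to 14 nM, 5% FBS, 0.3% DMSO), then stimulated with IFNγ (75 ng/mL) for 24 h. Surface ICAM-1 stained with APC anti-CD54 and read by flow cytometry; geometric mean of live-gated events plotted against concentration for EC50.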

Question: Which IC50 does the source give for `Cc1cc(COc2ccc(Nc3nc(Nc4cc(C)c(F)c(S(N)(=O)=O)c4)ncc3F)cc2F)no1` [Compound I-224, N2-(3-Aminosulfonyl-4-fluoro-5-methylphenyl)-5-fluoro-N4-[3-fluoro-4-(5-methylisoxazol-3-yl)methyleneoxyphenyl]-2,4-pyrimidinediamine] here?
Answer: 11.3 µM

Question: Which IC50 does the source give for `Cc1cc(COc2ccc(Nc3nc(Nc4cc(C)c(F)c(S(N)(=O)=O)c4)ncc3F)cc2)no1` [Compound I-217, N2-(3-Aminosulfonyl-4-fluoro-5-methylphenyl)-5-fluoro-N4-[4-(5-methylisoxazol-3-yl)methyleneoxyphenyl]-2,4-pyrimidinediamine] here?
Answer: 36.6 µM

Question: Which IC50 does the source give for `Cc1nc(COc2ccc(Nc3nc(Nc4cccc(S(N)(=O)=O)c4)ncc3F)cc2)no1` [Compound I-276, N2-(3-Aminosulfonyl)phenyl-5-fluoro-N4-[4-(5-methyl-1,2,4-oxadiazol-3-yl)methoxy]phenyl-2,4-pyrimidinediamine] here?
Answer: 8.09 µM

Question: For `Cc1ccc(Nc2ncc(C)c(Nc3ccc(CCC#N)cc3)n2)cc1S(N)(=O)=O` [III-11], which IC50 is on record?
Answer: 2.24 µM

Question: For `COc1cc(Nc2ncc(F)c(Nc3cc(C)c(OCC#N)c(C)c3)n2)ccc1S(N)(=O)=O` [Compound I-32, N2-(4-Aminosulfonyl-3-methoxy)phenyl-N4-(4-cyanomethoxy-3,5-dimethyl)phenyl-5-fluoro-2,4-pyrimidinediamine], which IC50 is on record?
Answer: 5.5 µM

Question: Which IC50 does the source give for `CNS(=O)(=O)c1cc(Nc2ncc(F)c(Nc3ccc(OCc4nc(C)no4)cc3)n2)ccc1C` [Compound I-260, 5-Fluoro-N2-[3-N-(methyl)aminosulfonyl-4-methylphenyl)-N4-[4-(3-methyl-1,2,4-oxadiazol-5-yl)methyleneoxyphenyl]-2,4-pyrimidinediamine] here?
Answer: 8.44 µM

Question: How did the IC50 turn out when `Cc1cc(Nc2nc(Nc3ccc(S(N)(=O)=O)cc3)ncc2F)cc(C)c1OCC#N` [Compound I-25, N2-(4-Aminosulfonyl)phenyl-N4-(4-cyanomethoxy-3,5-dimethyl)phenyl-5-fluoro-2,4-pyrimidinediamine] was run?
Answer: 25.3 µM

Question: With `N#CCCc1ccc(Nc2nc(Nc3ccc(F)c(S(N)(=O)=O)c3)ncc2F)cc1` [III-16, N2-(3-Aminosulfonyl-4-fluorophenyl)-N4-[4-(cyanoethylene)phenyl]-5-fluoro-2,4-pyrimidinediamine] as the compound, how does the IC50 read?
Answer: 7.24 µM

Question: `Cc1ccc(Nc2ncc(F)c(Nc3ccc(CC#N)cc3)n2)cc1S(N)(=O)=O` [III-7, N2-(3-Aminosulfonyl-4-methyl)phenyl-N4-(4-cyanomethyl)phenyl-5-fluoro-2,4-pyrimidinediamine] was tested. Which IC50 did it give?
Answer: 12.3 µM

Question: For `Cc1cc(Nc2nc(Nc3cccc(S(N)(=O)=O)c3)ncc2F)cc(C)c1OCC#N` [Compound I-26, N2-(3-Aminosulfonyl)phenyl-N4-(4-cyanomethoxy-3,5-dimethyl)phenyl-5-fluoro-2,4-pyrimidinediamine], which IC50 is on record?
Answer: 4.23 µM

Question: For `Cc1cc(COc2ccc(Nc3nc(Nc4ccc(C)c(S(N)(=O)=O)c4)ncc3F)cc2)no1` [Compound I-219, N2-(3-Aminosulfonyl-4-methylphenyl)-5-fluoro-N4-[4-(5-methylisoxazol-3-yl)methyleneoxyphenyl]-2,4-pyrimidinediamine], which IC50 is on record?
Answer: 7.16 µM

Question: `COc1cc(Nc2ncc(F)c(Nc3ccc(CC#N)cc3)n2)ccc1S(N)(=O)=O` [III-9, N2-(4-Aminosulfonyl-3-methoxy)phenyl-N4-(4-cyanomethyl)phenyl-5-fluoro-2,4-pyrimidinediamine] was tested. Which IC50 did it give?
Answer: 23.6 µM

Question: Which IC50 does the source give for `Cc1nnc(COc2ccc(Nc3nc(Nc4cccc(S(N)(=O)=O)c4)ncc3F)cc2)o1` [Compound I-277, N2-(3-aminosulfonylphenyl)-5-fluoro-N4-[4-(5-methyl-1,3,4-oxadiazol-2-yl)methyleneoxyphenyl]-2,4-pyrimidinediamine] here?
Answer: 6.91 µM

Question: Which IC50 does the source give for `CCN(CC)CCNS(=O)(=O)c1ccc(Nc2ncc(F)c(Nc3ccc(OCc4cc(C)on4)cc3)n2)cc1` [Compound I-246, N2-[4-(2-N,N-Diethylaminoethyl)aminosulfonylphenyl)-5-fluoro-N4-[4-(5-methylisoxazol-3-yl)methyleneoxyphenyl]-2,4-pyrimidinediamine] here?
Answer: 8.88 µM

Question: With `Cc1noc(COc2cccc(Nc3nc(Nc4cccc(S(N)(=O)=O)c4)ncc3F)c2)n1` [Compound I-252, N2-(3-Aminosulfonylphenyl)-5-fluoro-N4-[3-(3-methyl-1,2,4-oxadiazol-5-yl)methyleneoxyphenyl]-2,4-pyrimidinediamine] as the compound, how does the IC50 read?
Answer: 74.2 µM

Question: `Cc1noc(COc2ccc(Nc3nc(Nc4ccc(S(N)(=O)=O)cc4)ncc3F)cc2)n1` [Compound I-268, N2-(4-Aminosulfonylphenyl)-5-fluoro-N4-(4-[3-methyl-1,2,4-oxadiazol-5-yl]methyleneoxyphenyl)-2,4-pyrimidinediamine] was tested. Which IC50 did it give?
Answer: 5.08 µM

Question: How did the IC50 turn out when `Cc1ccc(Nc2ncc(F)c(Nc3ccc(CCC#N)cc3)n2)cc1S(N)(=O)=O` [III-15, N2-(3-Aminosulfonyl-4-methylphenyl)-N4-[4-(cyanoethylene)phenyl]-5-fluoro-2,4-pyrimidinediamine] was run?
Answer: 4.66 µM

Question: How did the IC50 turn out when `Cc1cc(COc2ccc(Nc3nc(Nc4cc(Cl)c(C)c(S(N)(=O)=O)c4)ncc3F)cc2F)no1` [Compound I-223, N2-(3-Aminosulfonyl-5-chloro-4-methylphenyl)-5-fluoro-N4-[3-fluoro-4-(5-methylisoxazol-3-yl)methyleneoxyphenyl]-2,4-pyrimidinediamine] was run?
Answer: 9.09 µM

Question: With `Cc1ccc(Nc2ncc(F)c(Nc3ccc(OC4CCCN(C)C4)c(Cl)c3)n2)cc1S(N)(=O)=O` (racemic) [II-3, Racemic N2-(3-aminosulfonyl-4-methylphenyl)-N4-{3-chloro-4-[(1-methylpiperidin-3-yl)oxy]phenyl}-5-fluoro-2,4-pyrimidinediamine] as the compound, how does the IC50 read?
Answer: 11.9 µM

Question: With `Cc1noc(COc2ccc(Nc3nc(Nc4cc(C)c(Cl)c(S(N)(=O)=O)c4)ncc3F)cc2)n1` [Compound I-265, N2-(3-Aminosulfonyl-4-chloro-5-methylphenyl)-5-fluoro-N4-[4-(3-methyl-1,2,4-oxadiazol-5-yl)methyleneoxyphenyl]-2,4-pyrimidinediamine] as the compound, how does the IC50 read?
Answer: 4.08 µM

Question: For `N#CCOc1ccc(Nc2nc(Nc3cccc(S(N)(=O)=O)c3)ncc2F)cc1` [Compound I-17, N2-(3-Aminosulfonyl)phenyl-N4-(4-cyanomethoxy)phenyl-5-fluoro-2,4-pyrimidinediamine], which IC50 is on record?
Answer: 2.35 µM

Question: For “N2-[3-Aminosulfonyl-4-(4-methylpiperazin-1-yl)phenyl]-5-fluoro-N4-[2-fluoro-4-(5-methylisoxazol-3-yl)methyleneoxyphenyl]-2,4-pyrimidinediamine [Compound I-251]”, which IC50 is on record?
Answer: 34.9 µM

Question: `Cc1noc(COc2ccc(Nc3nc(Nc4cccc(S(=O)(=O)NCc5oc(=O)oc5C)c4)ncc3F)cc2)n1` [Compound I-257, N2-{3-[(N-5-Methyl-1,3-dioxolene-2-one-4-yl)methylene]aminosulfonylphenyl}-5-fluoro-N4-[4-(3-methyl-1,2,4-oxadiazol-5-yl)methyleneoxyphenyl]-2,4-pyrimidinediamine] was tested. Which IC50 did it give?
Answer: 3.08 µM

Question: For `NS(=O)(=O)c1cccc(Nc2ncc(F)c(Nc3cccc(CNC(=O)C4CC4)c3)n2)c1` [III-39, N2-(3-aminosulfonyl)phenyl-N4-(3-cyclopropylcarbonylaminomethyl)phenyl-5-fluoro-2,4-pyrimidinediamine], which IC50 is on record?
Answer: 4.15 µM

Question: `N#CCCc1ccc(Nc2nc(Nc3cccc(S(N)(=O)=O)c3)ncc2F)cc1` [III-14, N2-(3-aminosulfonylphenyl)-N4-[4-(cyanoethylene)phenyl]-5-fluoro-2,4-pyrimidinediamine] was tested. Which IC50 did it give?
Answer: 3.6 µM

Question: Which IC50 does the source give for `Cc1ccc(Nc2ncc(F)c(Nc3ccc(OCC#N)cc3)n2)cc1S(N)(=O)=O` [Compound I-20, N2-(3-Aminosulfonyl-4-methyl)phenyl-N4-(4-cyanomethoxy)phenyl-5-fluoro-2,4-pyrimidinediamine] here?
Answer: 6.54 µM

Question: With `N#CCc1ccc(Nc2nc(Nc3cccc(S(N)(=O)=O)c3)ncc2F)cc1` [III-4, N2-(3-Aminosulfonyl)phenyl-N4-(4-cyanomethyl)phenyl-5-fluoro-2,4-pyrimidinediamine] as the compound, how does the IC50 read?
Answer: 8.37 µM

Question: `CN1CCN(S(=O)(=O)c2cccc(Nc3ncc(F)c(Nc4ccc(OCC#N)cc4)n3)c2)CC1` [Compound I-19, N4-(4-Cyanomethoxy)phenyl-5-fluoro-N2-[3-(4-methylpiperazin-1-yl)sulfonyl]phenyl-2,4-pyrimidinediamine] was tested. Which IC50 did it give?
Answer: 24.9 µM

Question: `Cc1noc(COc2cccc(Nc3nc(Nc4ccc(C)c(S(N)(=O)=O)c4)ncc3F)c2)n1` [Compound I-254, N2-(3-Aminosulfonyl-4-methylphenyl)-5-fluoro-N4-[3-(3-methyl-1,2,4-oxadiazol-5-yl)methyleneoxyphenyl]-2,4-pyrimidinediamine] was tested. Which IC50 did it give?
Answer: 8.96 µM

Question: For `Cc1cc(COc2ccc(Nc3nc(Nc4cc(C)c(Cl)c(S(N)(=O)=O)c4)ncc3F)cc2)no1` [Compound I-218, N2-(3-Aminosulfonyl-4-chloro-5-methylphenyl)-5-fluoro-N4-[4-(5-methylisoxazol-3-yl)methyleneoxyphenyl]-2,4-pyrimidinediamine], which IC50 is on record?
Answer: 3.27 µM

Question: `Cc1cc(COc2ccc(Nc3nc(Nc4ccc(C)c(S(N)(=O)=O)c4)ncc3F)cc2C)no1` [Compound I-234, N2-(3-Aminosulfonyl-4-methylphenyl)-5-fluoro-N4-[3-methyl-4-(5-methylisoxazol-3-yl)methyleneoxyphenyl]-2,4-pyrimidinediamine] was tested. Which IC50 did it give?
Answer: 8.16 µM

Question: For `N#CCc1ccc(Nc2nc(Nc3ccc(Cl)c(S(N)(=O)=O)c3)ncc2F)cc1` [III-8, N2-(3-Aminosulfonyl-4-chloro)phenyl-N4-(4-cyanomethyl)phenyl-5-fluoro-2,4-pyrimidinediamine], which IC50 is on record?
Answer: 14.5 µM

Question: For `Cc1nnc(COc2ccc(Nc3nc(Nc4ccc(F)c(S(N)(=O)=O)c4)ncc3F)cc2)o1` [Compound I-278, N2-(3-Aminosulfonyl-4-fluorophenyl)-5-fluoro-N4-[4-(5-methyl-1,3,4-oxadiazol-2-yl)methyleneoxyphenyl]-2,4-pyrimidinediamine], which IC50 is on record?
Answer: 11 µM

Question: How did the IC50 turn out when `Cc1cc(Nc2nc(Nc3ccc(S(N)(=O)=O)cc3)ncc2F)ccc1OCC#N` [Compound I-22, N2-(4-Aminosulfonyl)phenyl-N4-(4-cyanomethoxy-3-methyl)phenyl-5-fluoro-2,4-pyrimidinediamine] was run?
Answer: 14.4 µM
